Some test systems named below: U251 CNS; K-562 leukemia; HCC-2998 colon; KM12 colon; NCI/ADR-RES ovarian; HCT-15 colon; NCI-H522 lung; HS 578T breast; M14 melanoma; SR leukemia.
What all share (experiment): inhibition of tumour cell growth, NCI panel, 48 h

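Grown in 96-well plates, cells were treated for 48 hours with each compound at five concentrations. Insufficient inhibition: endpoint recorded as highest concentration tested. TGI marks complete inhibition of growth.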 A value given as a limit tells only on which side of the number the result lay.

As to `CN(C)CCSc1nccc(-c2ccc(-c3ccnc(SCCN(C)C)n3)s2)n1`, the TGI was 26 µM in the test with U251 CNS; 23.2 µM in the test on K-562 leukemia; 18.6 µM with HCC-2998 colon; 16 µM in the test on KM12 colon; 19.9 µM with NCI/ADR-RES ovarian; 17.3 µM in the test with HCT-15 colon. This compound also gave a TGI in the test with NCI-H522 lung of 33.5 µM.

`CCCCCC(=O)OCC1(CO)C/C(=C/CC(C(C)C)C(C)C)C(=O)O1` (configuration not stated): the TGI is above 75 µM in the test on U251 CNS; above 75 µM in the test with HCC-2998 colon; 37.4 µM in the test on KM12 colon; above 75 µM with HS 578T breast; above 75 µM in the test on NCI/ADR-RES ovarian; above 75 µM with HCT-15 colon. In the test with NCI-H522 lung, the TGI stood at 27.7 µM.

Regarding `CC1=CCC(=O)[C@]2(C)C(CC(=O)O)[C@]3(C)C4=C(C)C(c5ccoc5)C[C@@H]4O[C@@H]3[C@H](O)[C@@H]12` (some centres not stated), the TGI in the test on U251 CNS, in the test with HCC-2998 colon, in the test on KM12 colon, in the test on HS 578T breast, in the test with M14 melanoma and with NCI/ADR-RES ovarian was above 100 µM in each case. Also, the TGI in the test on HCT-15 colon and in the test on NCI-H522 lung was above 100 µM each time.

`O=C(N(C1=CCCC1)N(c1ccccc1)c1ccccc1)C(F)(F)F`: the TGI with SR leukemia was determined as 90.4 µM; in the test on U251 CNS, 42.2 µM; in the test with K-562 leukemia, 68.7 µM; in the test on HCC-2998 colon, 33.8 µM; in the test with KM12 colon, 43.9 µM; in the test on M14 melanoma, 74.5 µM. In addition, the TGI in the test on NCI/ADR-RES ovarian is 87.9 µM; with HCT-15 colon, 51.8 µM; in the test on NCI-H522 lung, 25.3 µM.

With `CC(=O)c1nc(C#N)c(N)o1`, the TGI in the test with U251 CNS, in the test on K-562 leukemia, in the test on HCC-2998 colon, in the test on KM12 colon, in the test on HS 578T breast and with M14 melanoma was above 100 µM throughout. In addition, the TGI in the test on NCI/ADR-RES ovarian, with HCT-15 colon and in the test on NCI-H522 lung was above 100 µM in each case.

As to `O=C(c1cccs1)N(C(=O)N1CCCCC1)c1ccccc1`, the TGI in the test with U251 CNS, with K-562 leukemia, in the test with KM12 colon, in the test on HS 578T breast, in the test with M14 melanoma and in the test with NCI/ADR-RES ovarian was above 100 µM in each case. The same compound displayed a TGI in the test with HCT-15 colon above 100 µM.

As for `O=c1cc(-c2ccccc2)[nH]c2c(F)ccc(F)c12`, the TGI with SR leukemia was 90.3 µM; with U251 CNS, above 100 µM; in the test on K-562 leukemia, above 100 µM; in the test on KM12 colon, above 100 µM; in the test with M14 melanoma, above 100 µM; in the test on HCT-15 colon it was above 100 µM. This compound gave a TGI in the test with NCI-H522 lung above 100 µM.

Turning to `COc1ccc(-c2nc3ncccn3c2-c2ccc(S(C)(=O)=O)cc2)cc1`, the TGI in the test with SR leukemia, in the test on U251 CNS, in the test with K-562 leukemia, with KM12 colon, in the test on HS 578T breast and with M14 melanoma was above 100 µM each time. Also, the TGI in the test on NCI/ADR-RES ovarian and in the test with HCT-15 colon was above 100 µM throughout.

In the case of `COc1ccc(OC)c([N+](=O)[O-])c1-c1nc2sc(C)cn2c1/C=N/N=C(N)N`, the TGI with U251 CNS was above 100 µM; in the test on K-562 leukemia, 28.7 µM; with HCC-2998 colon, 60.3 µM; in the test with KM12 colon, 72.9 µM; in the test with HS 578T breast, 97.9 µM; with M14 melanoma it was above 100 µM. Also, the TGI in the test on NCI/ADR-RES ovarian was above 100 µM; with HCT-15 colon it was above 100 µM; in the test with NCI-H522 lung, 46.5 µM.

For the compound `CC(=O)OCC12C(OC(C)=O)C[C@@H](C)C3(CC(c4ccoc4)OC3=O)C1CCC(OC(C)=O)C21CO1` (some centres not stated), the TGI in the test on U251 CNS, in the test on K-562 leukemia, in the test with HCC-2998 colon, with KM12 colon, in the test on HS 578T breast and with M14 melanoma was above 100 µM in each case. The TGI in the test with NCI/ADR-RES ovarian, with HCT-15 colon and in the test on NCI-H522 lung was above 100 µM throughout.

Consider `NS(=O)(=O)c1ccc(NS(=O)(=O)c2ccc(NC(=O)N(c3ccccc3)c3ccccc3)cc2)cc1`, for which the TGI in the test on U251 CNS, in the test with K-562 leukemia, in the test on KM12 colon, in the test on HS 578T breast, in the test with M14 melanoma and in the test on NCI/ADR-RES ovarian was above 100 µM throughout. The TGI with HCT-15 colon and in the test on NCI-H522 lung was above 100 µM throughout.

As for `Cc1nc(C)c(C(=O)NNC(=O)c2ccccc2)cc1C(=O)NNC(=O)c1ccccc1`, the TGI in the test with U251 CNS was above 100 µM; with K-562 leukemia, above 100 µM; in the test on HCC-2998 colon, above 100 µM; in the test on KM12 colon it was above 10 µM; with HS 578T breast, above 100 µM; in the test on M14 melanoma, above 100 µM. Besides, the TGI in the test with NCI/ADR-RES ovarian, in the test on HCT-15 colon and in the test on NCI-H522 lung was above 100 µM each time.

Regarding `Fc1sc2c(c1F)C1CCC2C1` (configuration not stated), the TGI with U251 CNS is above 100 µM; with HCC-2998 colon it was above 100 µM; with KM12 colon it was above 100 µM; in the test with HS 578T breast, 69.6 µM; in the test on M14 melanoma, above 100 µM; in the test with NCI/ADR-RES ovarian it was above 100 µM. In addition, the TGI in the test on HCT-15 colon and in the test with NCI-H522 lung was above 100 µM each time.

For `CCC(C)Cn1c(C)nc2c1C(=O)c1ccccc1C2=O` (configuration not stated), the TGI with SR leukemia, with U251 CNS, in the test with K-562 leukemia, in the test with HCC-2998 colon, with KM12 colon and in the test with M14 melanoma was above 100 µM each time. The TGI with HCT-15 colon and in the test with NCI-H522 lung was above 100 µM in each case.

Regarding `C(=N\Nc1nnc(-c2nnc(N/N=C/c3ccccc3)o2)o1)/c1ccccc1`, the TGI with SR leukemia, in the test with U251 CNS, with K-562 leukemia, in the test on HCC-2998 colon, in the test with KM12 colon and in the test with HS 578T breast was above 10 µM throughout. In addition, the TGI in the test on M14 melanoma, in the test on NCI/ADR-RES ovarian and with HCT-15 colon was above 10 µM throughout.
